Results taken from article PMC12752627, “Discovery of a Potent and Selective TEAD Degrader with Durable Degradation Activity” (Advanced Science, 2025).

Key:
MSTO-211H xenograft = MSTO-211H xenograft pharmacodynamic study (3 mg/kg i.p.); type: in vivo, BALB/c nude mice; conditions: 3 mg/kg i.p. q.d. 21 days
Method: Animal experiments were conducted by Medsyin (Shanghai) Co., Ltd. The experimental protocol was approved by the IACUC of the company (No.: PZWH20240527‐1) and strictly adhered to the guidelines of AAALAC. The specific procedures are as follows: 5 × 10^6 MSTO‐211H cells were suspended in 100 µL of a mixture of PBS and Matrigel and inoculated subcutaneously into the right axilla of 6‐week‐old BALB/c nude mice. Drug administration was initiated on day 7 after cell inoculation (when the average tumor volume was ≈150 mm^3). The experiment was divided into two groups: one group served as the control group, and the other group received drug administration via intraperitoneal injection at a dose of 3 mg kg^−1 (6 mice in each group), once a day for 21 consecutive days. During the experiment, the body weight and tumor volume of the mice were measured twice a week. At the end of the experiment, the mice were sacrificed and tumor tissues were collected.

NCI-H226 cells [1] = experiment: Cell viability assay (CTG, 72 h) NCI-H226; type: cell-based; conditions: Homo sapiens, NCI-H226, 72 h; 3-day antiproliferation; read-out: IC50 (nM ± SD), NCI-H226
Method: (§1) Cells were seeded at a density of 1000 cells per well in 96‐well flat‐bottomed cell culture plates and cultured overnight at 37 °C with 5% CO2 to allow for cell attachment. The following day, different concentrations of compounds were added using an I‐DOT dispenser. After 72 h, 25 µL of CellTiter‐Meiluncell Luminescent Cell Viability Reagent (Meilunbio, #PWL111‐2) was added and incubated for 15 min at room temperature. Luminescence signals were then measured using an Envision plate reader (Revvity). Data were analyzed using GraphPad Prism 9.5 software.^[ [30] ^]

CRBN-DDB1 = CRBN-DDB1 (Homo sapiens, UniProt Q96SW2); experiment: CRBN binding assay, biochemical (HTRF); conditions: recombinant CRBN-DDB1, 1 h, read-out: Biochemical CRBN Binary Binding IC50 (nM ± SD)
Sequence of CRBN-DDB1 (Q96SW2 whole entry): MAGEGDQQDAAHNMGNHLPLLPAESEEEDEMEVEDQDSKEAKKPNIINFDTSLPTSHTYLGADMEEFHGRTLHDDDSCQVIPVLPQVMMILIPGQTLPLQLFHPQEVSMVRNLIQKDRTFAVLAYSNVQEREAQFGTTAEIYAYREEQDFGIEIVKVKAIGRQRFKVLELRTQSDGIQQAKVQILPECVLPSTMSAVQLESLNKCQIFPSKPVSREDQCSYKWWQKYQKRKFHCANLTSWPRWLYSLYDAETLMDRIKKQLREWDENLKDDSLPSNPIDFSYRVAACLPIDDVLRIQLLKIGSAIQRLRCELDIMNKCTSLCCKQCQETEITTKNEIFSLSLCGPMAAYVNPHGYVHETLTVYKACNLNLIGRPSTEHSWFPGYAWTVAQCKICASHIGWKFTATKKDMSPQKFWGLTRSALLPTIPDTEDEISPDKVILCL
Method: Next, 400 nL of compound solution (initial concentration 10 µM, followed by a three‐fold gradient dilution) was dispensed into the wells using the positive‐pressure‐based I‐DOT dispenser. After 1 h of incubation at room temperature, the HTRF signal was measured using an Envision plate reader (Revvity). Finally, the data were analyzed using non‐linear regression curves in GraphPad Prism 9.5 software.

HOS cells = experiment: Cell viability assay (CTG, 72 h) HOS; type: cell-based; conditions: Homo sapiens, HOS, 72 h, 3-day compound treatment
Method: as §1

ES2 xenograft = ES2 xenograft efficacy study; type: in vivo, BALB/c nude mice; conditions: 10 and 30 mg/kg
Method: Animal experiments were conducted by Medsyin (Shanghai) Co., Ltd. The experimental protocol was approved by the IACUC of the company (No.: PZWH‐2025031003) and strictly adhered to the guidelines of the AAALAC. The specific procedures are as follows: 5 × 10^6 MSTO‐211H cells or ES2 cells were suspended in 100 µL of a mixture of PBS and Matrigel and inoculated subcutaneously into the right axilla of 6‐week‐old BALB/c nude mice. Drug administration was initiated on day 7 after cell inoculation (when the average tumor volume was ≈150 mm^3). The experiment was divided into four groups with 6 mice in each group. The specific grouping and administration methods are as follows: control group, KY‐001 group (10 mg kg^−1, p.o.), KG‐FP‐003 (10 mg kg^−1 or 30 mg kg^−1, i.p.). The administration routes included intraperitoneal injection and intragastric administration, once a day for 21 consecutive days. During the experiment, the body weight and tumor volume of the mice were measured twice a week. At the end of the experiment, the mice were sacrificed and tumor tissues were collected.

NCI-H226 cells [2] = experiment: DIA proteomics in NCI-H226 cells; type: cell-based, Homo sapiens; conditions: 100 nM, 24 h
Method: Cells were seeded in 6‐well plates at 1 × 10⁶ cells well^−1 and treated with 100 nM KG‐FP‐003 (n = 3). After 24 h incubation, cells were harvested, washed with ice‐cold PBS, and stored at −80 °C. Cell pellets were lysed in 4 volumes of lysis buffer (1% SDS, 1% protease inhibitor cocktail) followed by 3 min sonication on ice. After centrifugation (12 000 g, 10 min, 4 °C), supernatants were collected for BCA protein quantification. Proteins were reduced with 5 mM DTT (56 °C, 30 min), alkylated with 11 mM iodoacetamide (RT, dark, 15 min), and diluted with 200 mM TEAB to reduce urea concentration below 2 M. Trypsin digestion (1:50 enzyme‐to‐protein ratio) was performed at 37 °C overnight followed by additional 4 h digestion. Peptides were desalted using Strata‐X SPE columns. […] MS analysis was performed on a timsTOF Pro mass spectrometer in dia‐PASEF mode (ESI voltage: 1.75 kV; scan range: 300–1500 m z^−1). DIA data were processed using DIA‐NN (v1.8) against the Homo_sapiens_9606_SP_20 231 220.fasta database (20429 entries) with reversed decoys, using trypsin as the cleavage enzyme. Fixed modifications included N‐terminal methionine excision and carbamidomethylation of cysteine, with FDR set at <1%.

TEAD1/3, TAZ = experiment: Immunoblot in A172 cells; type: cell-based; conditions: 24 h
Method: Immunoblotting was carried out as previously described.^[ [29] ^] Cells were seeded in 6‐well plates (Yeasen, #84011ES50) at a density of 1 million cells per well. The following day, cells were treated with compounds at the required concentrations, with the DMSO concentration kept below 0.4‰ to prevent toxic effects on the cells. The collected cell pellets were washed three times with PBS (Meilunbio, #MA0015) and resuspended in 120 µL of RIPA lysis buffer (Meilunbio, #MA0151) containing 1% protease inhibitor (Meilunbio, #MB2678‐2). The cells were then sonicated on ice and centrifuged at 12 000 rpm for 15 min at 4 °C to remove cellular debris. Protein concentrations were determined using the BCA Protein Quantification Kit (Meilunbio, #MA0082‐1). The protein samples were normalized, boiled at 99 °C for 10 min, and then subjected to electrophoresis on a 10% SDS‐PAGE gel. The separated protein bands were transferred to nitrocellulose membranes, blocked with TBST containing 5% BSA, and incubated with the indicated primary antibodies. Finally, the blots were imaged using an Amersham Typhoon NIR imager.

IKZF1-3, GSPT1 = experiment: HiBiT off-target assessment (IMiD substrates); type: cell-based; conditions: HiBiT-tagged cell lines, 6 h
Method: HiBiT cells were inoculated into 96‐well flat‐bottomed tissue culture plates at a density of 50 000 cells per well, followed by adding degraders into the wells using the I‐DOT dispenser. After 6 h of incubation, the cells were lysed and assayed for degradation using the Nano‐Glo HiBiT Lysis Assay System (Promega, #N3030). Luminescence signals were read using an Envision plate reader (Revvity) and the data were analyzed using GraphPad Prism 9.5 software.

`CNC(=O)c1cc2c(c(F)c1-c1c(Cl)c(F)cc3c1C[C@@](CN[C@H]1CC[C@H](C(=O)N4CCC(CC5CCN(C(=O)COc6ccc(N7CCC(=O)NC7=O)c(C)c6)CC5)CC4)CC1)(c1ccccc1)O3)[C@@H](O)[C@@H](C)C2` [KG-FP-003] was tested, and the “TEAD1 protein degradation in tumor” value (MSTO-211H xenograft) was “pronounced degradation of TEAD1 protein”, the “Tumor growth inhibition versus vehicle” value (MSTO-211H xenograft) was “significant tumor growth inhibition” and the IC50 (NCI-H226 cells [1]) was 27 ± 7 nM. For the same molecule, the IC50 (CRBN-DDB1) was 591 ± 21 nM, the IC50 (HOS cells) was 1.2 ± 1.5 nM and the “Tumor response in ES2 xenograft” value (ES2 xenograft) was “significant tumor regression”. The Proteome-wide selectivity (NCI-H226 cells [2]) was “selective downregulation of TEAD1 and TEAD4”, the “Degradation of TEAD1 and TEAD3 by immunoblot” value (TEAD1/3, TAZ) was “complete degradation” and the “TAZ protein expression by immunoblot” value (TEAD1/3, TAZ) was “increased TAZ protein expression”. The “Off-target degradation of IMiD substrates IKZF1-3 and GSPT1” value (IKZF1-3, GSPT1) was “no off‐target degradation was detected”.
